Results taken from patent US5220042A, “1,4-benzoquinone derivatives and benzene derivatives, and process for preparing the same” (priority 1984, dated 1993).

Tests used:
[1] = system: histamine release on anaphylaxis in abdominal cavity; assay: Histamine releasing inhibition test on anaphylaxis in abdominal cavity of rats; format: in vivo, rat (Sprague-Dawley strain); conditions: oral, 3 hours before anaphylaxis; dose not given
Protocol: (§1) SRS-A and histamine releasing inhibition test on anaphylaxis in abdominal cavity of rats.
(§2) Male or female rats (Sprague-Dawley strain, delivered from Charles River, Japan Ltd., Tokyo) of 6-7 week age were used as the test animals. The test animals were devided into a group consisting of 6 animals in one group depending on their body weight. The animals were fasted overnight. The test was conducted by a method according to P. T. Orange et al.: "J. Immunol., Vol. 105", pages 1087-1095 (1970).
(§3) 1 Milliliter each of twofold diluted anti-ovalbumin serm of rat was intraperitoneally injected to each of the test animal so as to have the rat sensitized. 2 Hours after the sensitization, 5 ml of Tyrode's solution containing 2 mg of ovalbumin and 250 micrograms of heparin sodium was intraperitoneally administered to the test animal to cause anaphylaxis. 5 Minutes after, the test animal was stunned by the blow on the head and was exsanguinated and killed by cervical incision. Additional 5 minutes later, the abdominal fluid was collected from the opening of the abdomen. The fluid collected was centrifuged at 4° C., first at 800 rpm, then at 2,500 rpm and the supernatant was collected, and stored at -80° C. until the bioassay was conducted. […]
(§4) The amount of SRS-A and histamine contained in the collected abdominal fluid was measured by a method similar to that employed in Pharmacological test-2.
(§5) Bio-assay of the collected abdominal fluid was conducted by using ileum of guinea pig which was treated with atropine. […] The isotonic contraction of the piece of the ileum was measured at 0.5 g of load by using an isotonic transducer "TD-112S" (manufactured by Nihon Koden Co., Ltd.). The measurements were recorded on an ink-writing recorder.
After stabilization of the contraction reaction due to histmine, the amount of histamine was measured quantitatively by observing the contraction of the piece of the ileum shown within 30 seconds after addition of 0.05-0.4 ml of the abdominal fluid. […]

[2] = system: SRS-A release on anaphylaxis in abdominal cavity; assay: SRS-A releasing inhibition test on anaphylaxis in abdominal cavity of rats; format: in vivo, rat (Sprague-Dawley strain); conditions: oral, 3 hours before anaphylaxis; dose not given
Protocol: as §1, §2, §3, §4, §5
The amount of SRS-A was measured by using the value of contraction shown after the addition of 0.2-0.5 ml of the collected fluid in the presence of 10^-7 M of pyrilamine (antihistaminic agent), said value of the contraction was calculated as contraction activity caused by 5 ng of histamine. […]

[3] = system: histamine release from lung fragments; assay: Inhibition of histamine release from sensitized guinea pig lung fragments; format: cell-based, guinea pig (Hartley strain); conditions: Cavia porcellus, read-out: Inhibition ratio (%) Histamine; for inhibition at 3 µM: Table 2, dose 3 μM; for inhibition at 30 µM: Table 2, dose 30 μM
Protocol: Inhibitory activities on the release of SRS-A and histamine of the present compounds were determined.
A male guinea pig (Hartley strain) (body weight: about 300 g) was sensitized by a method according to P. Anderson: "Int. Archs. Allergey appln. Immunol., Vol. 64, pages 249-258 (1981). Thus, 30 mg/kg of cyclophosphamide was intraperitoneally administered to the guinea pig, and 2 days after 1 microgram of ovalbumin (manufactured by Sigma Chemical Co., St. Louis, Mo. U. S. A.) together with 10 mg of aluminium hydroxide gel were intraperitoneally administered so as to have the animal sesitized.
50 Days after the sesitization, the animal was killed by exsanguination, and the lung was isolated from the animal and was perfused with 20 ml of Tyrode's solution, then immersed in an ice-cooled Tyrode's solution. The parenchyma of the lung was cut by using McIlwain-type tissue chopper to make it into fragments of lung having 2 mm square and the fragments were washed with Tyrode's solution. 400 Milligrams of sectiles of lung were suspended in 3.6 ml of Tyrode's solution, and this suspension was preincubated at 37° C. for 5 minutes, then 4 microliters of dimethyl sulfoxide solution of the test compound, in the case of control 4 microliters of dimethyl sulfoxide alone was added to the suspension. 5 Minutes after, 0.4 ml of 100 micrograms/ml of ovalbumin solution added so as to release SRS-A for 10 minutes. The suspension was ice-cooled and filtered through gauze, the filtrate was centrifuged at 2,000 rpm for 10 minutes and the supernatant was collected. The supernatant was stored in freezed state at -80° C. until bio-assay was conducted.
Amounts of SRS-A and histamine contained in the supernatant were determined by bio-assay using ileum of guinea pig.
A piece of the ileum (2-3 cm of length) positioned from 15-25 cm from the opening portion of ileocecum was isolated from a male guinea pig (Hartley strain) (body weight: 400-600 g) which was fasted for 24 hours. The piece of ileum was hanged vertically in a Magnus tube which was filled with 10 ml of Tyrode's solution containing 10^-7 M of atropine sulfate under air stream conditions. The isotonic contraction of the piece of the ileum was measured at 0.5 g of load by using an isotonic transducer "TD-112S" (manufactured by Nihon Koden Co., Ltd.). The measurements were carried out after the reaction to histamine of the piece of ileum was kept constant. Bioassay of histamine was measured by using the value of contraction shown in 30 seconds after the addition of the supernatant. Bioassay of on SRS-A was measured by using the value of contraction shown at 2 minutes after the addition of the supernatant in the presence of 10^-6 M of pyrilamine (manufactured by Sigma Chemical Co.), and compared with the standard curve of crude SRS-A released from the fragments of the lung.

| Compound | Inhibitory rate (%) Histamine [1] | Inhibitory rate (%) SRS-A [2] | inhibition at 3 µM [3] | inhibition at 30 µM [3] |
| --- | --- | --- | --- | --- |
| COC1=CC(=O)C(OC)=C(CCCCCC#CCCCCCC2=C(OC)C(=O)C=C(OC)C2=O)C1=O [Test Compound No. 16, 2,2'-(6-Dodecynylene)bis(3,6-dimethoxy-1,4-benzoquinone)] | 8.0% | 15.5% |  |  |
| COC1=CC(=O)C(OC)=C(CCCCCC2=C(OC)C(=O)C=C(OC)C2=O)C1=O [Test Compound No. 9, 2,2'-Pentamethylenebis(3,6-dimethoxy-1,4-benzoquinone)] | -3.6% | 4.9% | -15% | 4.1% |
| COC1=CC(=O)C(OC)=C(CCCCCCCCCC2=C(OC)C(=O)C=C(OC)C2=O)C1=O [Test Compound No. 13, 2,2'-Nonamethylenebis(3,6-dimethoxy-1,4-benzoquinone)] | 10.9% | 25.8% | -2.7% | -14.9% |
